# Legend:
# CNS mononuclear cells = experiment: Intracellular cytokine staining of CNS mononuclear cells; type: in vivo, mice; conditions: 2.5 mg pellet
# Source text: CNS mononuclear cells were isolated from perfused brain and spinal cord by percol gradient centrifugation as described in Bebo et al., J. Neurosci. Res. 52:420-429 (1998). The cells were stimulated with MOG-35-55 peptide for 24 hrs, the last 5 hrs in the presence of Brefeldin A. The cells were then stained with anti-CD4 cychrome labeled antibodies prior to fixation and permeabilization. The cells were subsequently stained with Vβ8.1/8.2 TCR-FITC and the indicated cytokine specific antibody coupled to PE and analyzed by three-color flow cytometry. For each experiment the cells were stained with isotype control antibodies to establish background staining and to set the quadrants prior to calculating the percent positive cells.
# Intracellular staining of CNS mononuclear cells with anti-cytokine antibodies was also performed. Mononuclear cells were recovered from the brain and spinal cords of perfused mice at the peak of clinical disease. […] These cells were stained with anti-CD4 cychrome labeled antibodies and the frequency of cytokine producing Vβ8.2+ helper T cells was measured by staining with anti-Vβ8.2-FITC and PE-labeled cytokine specific antibodies.
# IL-10 KO mice = experiment: EAE induced with MOG 35-55 in IL-10 KO mice (clinical, histopathology); type: in vivo; conditions: 2.5 mg pellet
# Description: Estrogen treatment. Sixty-day release pellets containing 2.5 mg of 17β-estradiol (E2) or vehicle were implanted subcutaneously (s.c) in the scapular region behind the neck using a 12-gauge trochar as described by the manufacturer (Innovative Research of America, Sarasota, Fla.). The mice were implanted one week prior to immunization with MOG 35-55. The concentration of E2 expected in the serum is between 1,500-2,000 pg/ml, which is approximately 5 times less than the levels found during pregnancy.
# Induction of EAE. C57BL/6 and cytokine deficient mice were inoculated s.c in the flanks with 0.2 ml of an emulsion containing 200 μg of MOG 35-55 in saline and an equal volume of complete Freund's Adjuvant (CFA) containing 400 μg of Mycobacterium tuberculosis H37RA (Difco Laboratories, Detroit, Mich.). Disease induction required i.v. administration of pertussis toxin on the day of immunization (25 ng/mouse) and 2 days later (67 ng/mouse). The mice were assessed daily for clinical signs of EAE according to the 7 point scale described in Example I.
# Histopathology. Histopathologic assessment of spinal column section was performed essentially as described in Example I, except that sections were stained with either luxol fast blue-periodic acid schiff-hematoxylin or silver nitrate prior to analysis.
# Statistical analysis. Significant differences in incidence and mortality between untreated and E2 treated mice were assessed by Chi-square analysis. Difference in onset was determined using the two-tailed Student t test. Differences in peak score and cumulative disease index (CDI) were assessed by the Mann-Whitney test. Statistical significance of the frequency of cytokine secreting cells was analyzed using Student's t test for comparisons of two means. Differences in the expression of chemokine and cytokine mRNA were also determined using the Student t test. Values of p<0.05 were considered significant.
# [1] = tested on: draining lymph node (DLN) cells; experiment: Flow cytometry of activation and adhesion markers on DLN cells of SJL mice with EAE; type: in vivo; conditions: DLN cells at peak of EAE
# Description: Immunofluorescent staining for flow cytometry. Draining lymph node (DLN) cells were removed during the peak of clinical symptoms and analyzed for the expression of cell surface proteins by fluorescent staining ex vivo. The following fluorochrome conjugated antibodies obtained from Pharmingen Inc. (San Diego, Calif.) were used for the direct staining of DLN cells: anti-CD4, anti-CD25, anti-CD69, anti-CD95L, anti-CD44, anti-CD62L, anti-CD49d. Two-color immunofluorescent analysis was performed on a FACScan instrument (Becton Dickinson, Mountain View, Calif.) using Cellquest software. For each experiment the cells were stained with isotype control antibodies to establish background staining, and to set the quadrants prior to calculating the percent positive staining cells. […] Alterations in the expression of adhesion or activation markers on T cells are often indicative of functional changes in the cell. Monoclonal antibodies specific for a number of these markers were used to assess whether estrogen therapy altered their expression. Draining lymph node (DLN) cells were recovered from mice during the peak of clinical EAE, incubated with the indicated fluorochrome conjugated monoclonal antibodies, and surface expression measured by fluorescent activated cell analyzer.
# male SJL mice = experiment: EAE induced with PLP 139-151 in male SJL mice; type: in vivo
# [2] = tested on: T cells from naïve BV8S2 transgenic female mice; experiment: In vitro effect of 17β-estradiol on T cells from naïve BV8S2 transgenic female mice; type: cell-based
# Description: Proliferation assay. Proliferation responses of splenic T cells were determined essentially as described in Example II, except that antigen was used at an optimal concentration of 50 μg/ml.
# Measurement of cytokine secretion. Lymph nodes of naïve BV8S2 TCR transgenic females were suspended at 4×10^6 cells/ml in stimulation medium with antigen and with or without 2000 pg/ml of 17β-estradiol. Cell culture supernatants were recovered at 72 hours and frozen at −70 C until used. Measurement of cytokines was performed by ELISA essentially as described in Example II.
# To evaluate 17β-estradiol effects on antigen specific T cells, splenocytes from naïve BV8S2 single transgenic female mice were stimulated with MBP-Ac1-11 peptide or BV8S2 protein in the presence or absence of a range of 17β-estradiol concentrations.
compound,measurement,setting,value
C[C@]12CC[C@@H]3c4ccc(O)cc4CC[C@H]3[C@@H]1CC[C@@H]2O [17β-estradiol],frequency and staining intensity of TNF-α and IFN-γ producing CD4+ T cells in the CNS,CNS mononuclear cells; p<0.0001,dramatic reduction
same,"total number of mononuclear cells recovered from perfused CNS, untreated relative to E2 treated mice",CNS mononuclear cells; peak of clinical disease,4-5 times higher
same,pro-inflammatory cytokine producing CD4+ Vβ8.2+ T cells in CNS,"CNS mononuclear cells; untreated 29,000 cells/mouse",390 cells/mouse
same,CDI,IL-10 KO mice; IL-10 KO,6.5 ± 10.9
same,Incidence,IL-10 KO mice; IL-10 KO,6/17
same,Mortality,IL-10 KO mice; IL-10 KO,0/17
same,Onset,IL-10 KO mice; IL-10 KO,22.0 ± 4.3
same,Peak Score,IL-10 KO mice; IL-10 KO,4.2 ± 0.8
same,Inflammatory foci/section,"IL-10 KO mice; IL-10KO, spinal cord",0.0 ± 0.0 Foci/Section
same,"CD4, % of Total",[1]; 0.36 mg pellet,49%
same,"CD25, % of CD4+ T cells",[1]; 0.36 mg pellet,5.9%
same,"CD44, % of CD4+ T cells",[1]; 0.36 mg pellet,43%
same,"CD62L, % of CD4+ T cells",[1]; 0.36 mg pellet,7.0%
same,"CD69, % of CD4+ T cells",[1]; 0.36 mg pellet,6.6%
same,"CD49d, % of CD4+ T cells",[1]; 0.36 mg pellet,45%
same,"FASL, % of CD4+ T cells",[1]; 0.36 mg pellet,2.7%
same,"CD4, % of Total",[1]; 2.5 mg pellet,49%
same,"CD25, % of CD4+ T cells",[1]; 2.5 mg pellet,6.3%
same,"CD44, % of CD4+ T cells",[1]; 2.5 mg pellet,41%
same,"CD62L, % of CD4+ T cells",[1]; 2.5 mg pellet,6.7%
same,"CD69, % of CD4+ T cells",[1]; 2.5 mg pellet,6.5%
same,"CD49d, % of CD4+ T cells",[1]; 2.5 mg pellet,43%
same,"FASL, % of CD4+ T cells",[1]; 2.5 mg pellet,4.2%
same,CDI,male SJL mice; 0.36 mg/pellet,6.4 ± 5.1
same,Incidence,male SJL mice; 0.36 mg/pellet,3/4
same,Incidence (%),male SJL mice; 0.36 mg/pellet,75%
same,Onset,male SJL mice; 0.36 mg/pellet,15.3 ± 3.2 days
same,Peak (disease score),male SJL mice; 0.36 mg/pellet,2.1 ± 2.4
same,Incidence,male SJL mice; 2.5 mg/pellet,0/4
same,Incidence (%),male SJL mice; 2.5 mg/pellet,0%
same,IL-12 or IL-10 secretion,"[2]; in vitro, 2,000 pg/ml, MBP-Ac1-11 stimulated LN cells",no effects
same,reduction of secreted IFN-γ protein,"[2]; in vitro, 2,000 pg/ml, MBP-Ac1-11 stimulated LN cells, p<0.005",50%
same,native T cell proliferation response to MBP-Ac1-11 peptide,"[2]; in vitro, 15-2,000 pg/ml",no significant effect
same,native proliferation response to BV8S2 protein,"[2]; in vitro, 15-2,000 pg/ml",modest enhancing effect
same,IFN-γ or other cytokine secretion,"[2]; in vitro, lower doses (150-400 pg/ml)",no inhibitory effects

# Source: patent publication US7579006B2, “Method of treating immune pathologies with low dose estrogen” (Oregon Health and Science University, priority 2000, dated 2009)
